Numbered stars: 1 amine (or outer) side, 2 acyl side, 3 side chain; on linkers, the order of the positions; unused ones are H or OH. Bridge positions count the residues as written; N and C are the ends. Square brackets hold non-standard residues; d marks the D form. Peptide text beside a SMILES is read from it. * marks the point of attachment. ξ: configuration not given here. X1 = NCCNCC(CNCCN)C(=O)N1CCN(CC(=O)NCCCOCCOCCOCCCN*)CC1; Pyridine(3,5-bisCH2) = c1ncc(C[*:2])cc1C[*:1]; mXylylene = c1cc(C[*:1])cc(C[*:2])c1; PEG6 = NCCOCCOCCOCCOCCOCCOCCC(=O)O; Suc = O=C(CCC(=O)[*:2])[*:1]; Nle = CCCC[C@H](N)C(=O)O; X2 = NCCNCC(CNCCN)C(=O)*; ξC = NC(CS)C(=O)O; βAla = NCCC(=O)O
How the values were obtained:
Human recombinant FAP [1] = target: T1, Human recombinant FAP (Homo sapiens, UniProt Q12884); experiment: Surface plasmon resonance (Biacore) assay; assay type: binding; conditions: for pKD Category: Biacore, SCK mode, 25° C.
in vivo = conditions: swiss nude, mouse, iv
HEK-FAP tumor = conditions: for uptake BPS 1 h / uptake BPS 3 h / uptake BPS 6 h / uptake Tumor 1 h / uptake Tumor 3 h / uptake Tumor 6 h / uptake Kidneys 1 h / uptake Kidneys 3 h / uptake Kidneys 6 h: ^99mTc-labeled, SPECT/CT; for uptake BPS 1 h / uptake BPS 3 h / uptake BPS 6 h: BPS (blood pool surrogate); for uptake BPS 1 h / uptake Tumor 1 h / uptake Kidneys 1 h: 1 h post tracer injection; for uptake BPS 3 h / uptake Tumor 3 h / uptake Kidneys 3 h: 3 h post tracer injection; for uptake BPS 6 h / uptake Tumor 6 h / uptake Kidneys 6 h: 6 h post tracer injection; for uptake Tumor 1 h / uptake Tumor 3 h / uptake Tumor 6 h: HEK-FAP tumor
Human recombinant FAP [2] = target: T1, Human recombinant FAP; experiment: FRET-based FAP protease activity assay; assay type: biochemical; parameters: purchased R&D systems 3715-SE; conditions: for IC50: pIC50 Category (activity), Recombinant human FAP; for pIC50 Category (activity): FRET-peptide substrate, 37° C.
[3] = Radiochemical purity by HPLC of ^99mTc-labeled compounds; assay type: physicochemical; conditions: 99Tc-labeled compounds
Method: 100-500 MBq of ^99mTcO4 (in saline) were mixed with 11 μl of 0.5 M phosphate buffer pH 11.5-12.0 and 1.1 μl of 0.1 M trisodium citrate per 100 μl radionuclide solution. […] The mixture was incubated for 30 min at 25-50′° C. At the end of the incubation time, the mixture was neutralized with 3.0 μl 1 M HCl per 10 μl phosphate buffer and TWEEN-20 was added at a final concentration of 0.100.

[4] = target: T2, FAP-expressing human WI-38 fibroblasts (Homo sapiens, UniProt Q12884); experiment: Competitive FACS binding assay; conditions: for pIC50 Category (FACS): competition with 3 nM Cy5-labeled compound, 4° C., 1 hour, WI-38 fibroblasts
T2 construct: FAP-expressing human WI-38 fibroblasts (ECACC) were cultured in EMEM; host or cells: WI-38 human fibroblasts
Method: Cells were analyzed in an Attune NxT flow cytometer. […] […].
Cells were analyzed in an Attune NxT flow cytometer. […]

T2 sequence (Q12884 whole entry): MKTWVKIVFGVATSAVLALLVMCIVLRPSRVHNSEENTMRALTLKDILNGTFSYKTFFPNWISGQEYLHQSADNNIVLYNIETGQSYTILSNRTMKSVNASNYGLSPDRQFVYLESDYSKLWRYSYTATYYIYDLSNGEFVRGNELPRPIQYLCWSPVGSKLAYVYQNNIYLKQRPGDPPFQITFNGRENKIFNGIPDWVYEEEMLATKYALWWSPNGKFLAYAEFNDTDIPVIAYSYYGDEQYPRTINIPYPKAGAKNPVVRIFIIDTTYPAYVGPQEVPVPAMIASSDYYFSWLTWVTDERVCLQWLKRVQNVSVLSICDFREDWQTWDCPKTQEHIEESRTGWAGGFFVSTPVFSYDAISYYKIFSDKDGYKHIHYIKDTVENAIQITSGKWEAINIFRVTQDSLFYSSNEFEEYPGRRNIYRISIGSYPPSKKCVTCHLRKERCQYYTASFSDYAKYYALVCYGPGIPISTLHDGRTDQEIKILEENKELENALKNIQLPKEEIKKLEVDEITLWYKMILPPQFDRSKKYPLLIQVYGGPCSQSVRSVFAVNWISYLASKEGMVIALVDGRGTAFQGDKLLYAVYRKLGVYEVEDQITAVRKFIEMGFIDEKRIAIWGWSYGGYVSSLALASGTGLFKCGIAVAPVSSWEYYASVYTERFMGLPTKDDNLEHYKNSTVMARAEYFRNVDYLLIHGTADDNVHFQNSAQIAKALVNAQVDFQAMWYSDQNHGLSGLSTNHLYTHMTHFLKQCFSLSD
T1 sequence (Q12884 whole entry): as above

| Molecule | Kd (Human recombinant FAP [1]) | tissue uptake at 1 h (in vivo; blood pool surrogate (BPS)) | tissue uptake at 3 h (in vivo; blood pool surrogate (BPS)) | tissue uptake at 6 h (in vivo; blood pool surrogate (BPS)) | tissue uptake at 1 h (in vivo; kidneys) | tissue uptake at 3 h (in vivo; kidneys) | tissue uptake at 6 h (in vivo; kidneys) | tissue uptake at 1 h (in vivo; tumor) | tissue uptake at 3 h (in vivo; tumor) | tissue uptake at 6 h (in vivo; tumor) | IC50 (Human recombinant FAP [2]) | HPLC Area % at end of synthesis [3] | IC50 [4] | HPLC Area % appr. 4 h post end of synthesis [3] | further results |
| --- | --- | --- | --- | --- | --- | --- | --- | --- | --- | --- | --- | --- | --- | --- | --- |
| CCCC[C@H](NC(=O)CCC(=O)NCCCOCCOCCOCCCNC(=O)CN1CCN(C(=O)C(CNCCN)CNCCN)CC1)C(=O)N[C@H]1CSCc2cncc(c2)CSC[C@@H](C(=O)NCCC(=O)O)NC(=O)[C@H](Cc2ccccc2)NC(=O)[C@H](CCC(N)=O)NC(=O)[C@H]([C@@H](C)O)NC(=O)[C@@H]2CCCN2C(=O)[C@@H]2CCCN2C1=O [3BP-4961, N4Ac-PPAc-Ttds-Nle-[Cys(3Lut)-Pro-Pro-Thr-Gln-Phe-Cys]-Bal-OH] | < 0.01 µM | 0.47 %ID/g | 0.31 %ID/g | 0.11 %ID/g | 2.36 %ID/g | 1.12 %ID/g | 0.77 %ID/g | 10.5 %ID/g | 11.4 %ID/g | 12.3 %ID/g | < 0.01 µM | 98.0% | < 0.01 µM |  | uptake in healthy tissues (biodistribution) (HEK-FAP tumor; ^99mTc-labelled, 1-6 h post injection, compared to 3BP-4219 and 3BP-4221): decreased uptake in healthy tissues over time |
| N4Ac-Ttds-Nle-[Cys-(3MeBn)-Pro-Pro-Thr-Gln-Phe-Cys]-OH [3BP-4219] |  |  |  |  |  |  |  |  |  |  |  | 94.8% |  |  | pKD Category (Human recombinant FAP [1]): A (Category A stands for pKD values >8.0); uptake BPS 1 h (HEK-FAP tumor): 0.21 % ID/g; uptake BPS 3 h (HEK-FAP tumor): 0.09 % ID/g; uptake BPS 6 h (HEK-FAP tumor): 0.07 % ID/g; uptake Tumor 1 h (HEK-FAP tumor): 6.80 % ID/g; uptake Tumor 3 h (HEK-FAP tumor): 7.62 % ID/g; uptake Tumor 6 h (HEK-FAP tumor): 4.52 % ID/g; uptake Kidneys 1 h (HEK-FAP tumor): 1.85 % ID/g; uptake Kidneys 3 h (HEK-FAP tumor): 1.84 % ID/g; uptake Kidneys 6 h (HEK-FAP tumor): 0.55 % ID/g; pIC50 Category (activity) (Human recombinant FAP [2]): A (pIC50 category A stands for pIC50 values >8.0); HPLC Area % appr. 4 h post end of synthesis ([3]; (5.5 h)): 93.8%; pIC50 Category (FACS) [4]: B (category B for pIC50 values between 7.1 and 8.0) |
| CCCC[C@H](NC(=O)CCOCCOCCOCCOCCOCCOCCNC(=O)C(CNCCN)CNCCN)C(=O)N[C@H]1CSCc2cncc(c2)CSCC(C(=O)O)NC(=O)[C@H](Cc2ccccc2)NC(=O)[C@H](CCC(=O)O)NC(=O)[C@H]([C@@H](C)O)NC(=O)[C@@H]2CCCN2C(=O)[C@@H]2CCCN2C1=O (stereo partly drawn) [3BP-4773, N4Ac-PEG6-Nle-[Cys(3Lut)-Pro-Pro-Thr-Glu-Phe-Cys]-OH] ({X2-PEG6}-[Nle]CPPTEF[ξC]-OH; linker 2-8 via Pyridine(3,5-bisCH2)) | 0.01 to 0.0794 µM | 0.25 %ID/g | 0.09 %ID/g | 0.06 %ID/g | 6.64 %ID/g | 4.71 %ID/g | 3.12 %ID/g | 6.19 %ID/g | 6.19 %ID/g | 5.42 %ID/g | 0.01 to 0.0794 µM | 95.8% | 0.01 to 0.0794 µM |  |  |
| CCCC[C@H](NC(=O)CCC(=O)NCCCOCCOCCOCCCNC(=O)CN1CCN(C(=O)C(CNCCN)CNCCN)CC1)C(=O)N[C@H]1CSCc2cccc(c2)CSC[C@@H](C(=O)NCCC(=O)O)NC(=O)[C@H](Cc2ccccc2)NC(=O)[C@H](CCC(N)=O)NC(=O)[C@H]([C@@H](C)O)NC(=O)[C@@H]2CCCN2C(=O)[C@@H]2CCCN2C1=O [3BP-4960, N4Ac-PPAc-Ttds-Nle-[Cys(3MeBn)-Pro-Pro-Thr-Gln-Phe-Cys]-Bal-OH] | < 0.01 µM | 0.74 %ID/g | 0.47 %ID/g | 0.17 %ID/g | 1.96 %ID/g | 1.21 %ID/g | 1.21 %ID/g | 10.5 %ID/g | 12.8 %ID/g | 12.1 %ID/g | < 0.01 µM | 95.2% | < 0.01 µM | 92.3% |  |
| CCCC[C@H](NC(=O)CCOCCOCCOCCOCCOCCOCCNC(=O)C(CNCCN)CNCCN)C(=O)N[C@H]1CSCc2cccc(c2)CSCC(C(=O)O)NC(=O)[C@H](Cc2ccccc2)NC(=O)[C@H](CCC(N)=O)NC(=O)[C@H]([C@@H](C)O)NC(=O)[C@@H]2CCCN2C(=O)[C@@H]2CCCN2C1=O (stereo partly drawn) [3BP-4551, N4Ac-PEG6-Nle-[Cys(3MeBn)-Pro-Pro-Thr-Gln-Phe-Cys]-OH] | 0.01 to 0.0794 µM | 0.18 %ID/g | 0.07 %ID/g | 0.04 %ID/g | 4.34 %ID/g | 1.18 %ID/g | 0.5 %ID/g | 10.6 %ID/g | 7.31 %ID/g | 4.59 %ID/g | 0.01 to 0.0794 µM | 94.1% | 0.01 to 0.0794 µM | 90.8% |  |
| N4Ac-PEG6-Nle-[Cys-(3MeBn)-Pro-Pro-Thr-Glu-Phe-Cys]-OH [3BP-4221] |  |  |  |  |  |  |  |  |  |  |  | 99.0% |  |  | pKD Category (Human recombinant FAP [1]): A (Category A stands for pKD values >8.0); uptake BPS 1 h (HEK-FAP tumor): 0.54 % ID/g; uptake BPS 3 h (HEK-FAP tumor): 0.27 % ID/g; uptake BPS 6 h (HEK-FAP tumor): 0.16 % ID/g; uptake Tumor 1 h (HEK-FAP tumor): 8.51 % ID/g; uptake Tumor 3 h (HEK-FAP tumor): 8.32 % ID/g; uptake Tumor 6 h (HEK-FAP tumor): 7.97 % ID/g; uptake Kidneys 1 h (HEK-FAP tumor): 4.74 % ID/g; uptake Kidneys 3 h (HEK-FAP tumor): 3.73 % ID/g; uptake Kidneys 6 h (HEK-FAP tumor): 2.56 % ID/g; pIC50 Category (activity) (Human recombinant FAP [2]): B (category B for pIC50 values between 7.1 and 8.0); HPLC Area % appr. 4 h post end of synthesis ([3]; (5.5 h)): 97.4%; pIC50 Category (FACS) [4]: B (category B for pIC50 values between 7.1 and 8.0) |
| CCCC[C@H](NC(=O)CCC(=O)NCCCOCCOCCOCCCNC(=O)CN1CCN(C(=O)C(CNCCN)CNCCN)CC1)C(=O)N[C@H]1CSCc2cncc(c2)CSCC(C(=O)O)NC(=O)[C@H](Cc2ccccc2)NC(=O)[C@H](CCC(=O)O)NC(=O)[C@H]([C@@H](C)O)NC(=O)[C@@H]2CCCN2C(=O)[C@@H]2CCCN2C1=O (stereo partly drawn) [3BP-4775, N4Ac-PPAc-Ttds-Nle-[Cys(3Lut)-Pro-Pro-Thr-Glu-Phe-Cys]-OH] ({X1-Suc}-[Nle]CPPTEF[ξC]-OH; linker 2-8 via Pyridine(3,5-bisCH2)) | 0.01 to 0.0794 µM | 0.21 %ID/g | 0.18 %ID/g | 0.04 %ID/g | 8.98 %ID/g | 6.31 %ID/g | 4.28 %ID/g | 7.88 %ID/g | 6.28 %ID/g | 4.55 %ID/g | 0.01 to 0.0794 µM | 86.4% | 0.01 to 0.0794 µM | 88.1% |  |
| CCCC[C@H](NC(=O)CCOCCOCCOCCOCCOCCOCCNC(=O)C(CNCCN)CNCCN)C(=O)N[C@H]1CSCc2cncc(c2)CSCC(C(=O)O)NC(=O)[C@H](Cc2ccccc2)NC(=O)[C@H](CCC(N)=O)NC(=O)[C@H]([C@@H](C)O)NC(=O)[C@@H]2CCCN2C(=O)[C@@H]2CCCN2C1=O (stereo partly drawn) [3BP-4550, N4Ac-PEG6-Nle-[Cys(3Lut)-Pro-Pro-Thr-Gln-Phe-Cys]-OH] | 0.01 to 0.0794 µM | 0.06 %ID/g | 0.03 %ID/g | 0.04 %ID/g | 0.92 %ID/g | 0.62 %ID/g | 0.38 %ID/g | 6.14 %ID/g | 4.91 %ID/g | 2.91 %ID/g | 0.01 to 0.0794 µM | 100% | 0.1 to 0.794 µM |  | HPLC Area % appr. 4 h post end of synthesis ([3]; (3 h)): 98.0% |
| CCCC[C@H](NC(=O)CCC(=O)NCCCOCCOCCOCCCNC(=O)CN1CCN(C(=O)C(CNCCN)CNCCN)CC1)C(=O)N[C@H]1CSCc2cccc(c2)CSC[C@@H](C(=O)NCCC(=O)O)NC(=O)[C@H](Cc2ccccc2)NC(=O)[C@H](CCC(=O)O)NC(=O)[C@H]([C@@H](C)O)NC(=O)[C@@H]2CCCN2C(=O)[C@@H]2CCCN2C1=O [3BP-4784, N4Ac-PPAc-Ttds-Nle-[Cys(3MeBn)-Pro-Pro-Thr-Glu-Phe-Cys]-Bal-OH] ({X1-Suc}-[Nle]CPPTEFC[βAla]-OH; linker 2-8 via mXylylene) | < 0.01 µM | 0.9 %ID/g | 0.63 %ID/g | 0.38 %ID/g | 1.61 %ID/g | 1.23 %ID/g | 1.01 %ID/g | 7.65 %ID/g | 7.43 %ID/g | 7.44 %ID/g | < 0.01 µM | 96.6% | < 0.01 µM | 94.9% |  |

Reference: patent US20230212549A1, “COMPOUNDS COMPRISING A […] LIGAND AND USE THEREOF” (priority 2021, published 2023)
